Like-named read-outs stand apart in the source and are kept apart here.
How the values were obtained:
K-562 = test: Inhibition of cells growth by colorimetric (SRB) assay, K-562; conditions: for GI50 / CC50: Homo sapiens, K562, 48 h; for GI50: read-out: GI50 K-562, SRB assay, 48 hours exposure; for TGI K-562: SRB assay, 48 hours exposure
In short: (§1)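 Read-out is sulforhodamine B protein stain (OD 490 nm) after cold TCA fixation, following 48 h continuous exposure to samples spanning 10 to 10^−8 μg/ml.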

A-549 = test: Inhibition of cells growth by colorimetric (SRB) assay, A-549; conditions: for GI50 / CC50: Homo sapiens, A549, 48 h; for GI50: read-out: GI50 A-549, SRB assay, 48 hours exposure; for TGI A-549: SRB assay, 48 hours exposure
In short: as §1

SK-MEL-28 = test: Inhibition of cells growth by colorimetric (SRB) assay, SK-MEL-28; conditions: for GI50 / CC50: Homo sapiens, SK-MEL-28, 48 h; for GI50: read-out: GI50 MEL-28, SRB assay, 48 hours exposure; for TGI MEL-28: SRB assay, 48 hours exposure
In short: as §1

DU-145 = test: Inhibition of cells growth by colorimetric (SRB) assay, DU-145; conditions: for GI50 / CC50: Homo sapiens, DU-145, 48 h; for GI50: read-out: GI50 DU-145, SRB assay, 48 hours exposure; for TGI DU-145: SRB assay, 48 hours exposure
In short: as §1

LNCaP = test: Inhibition of cells growth by colorimetric (SRB) assay, LNCaP; conditions: for GI50 / CC50: Homo sapiens, LNCaP, 48 h; for GI50: read-out: GI50 LN-caP, SRB assay, 48 hours exposure; for TGI LN-caP: SRB assay, 48 hours exposure
In short: as §1

SK-BR-3 = test: Inhibition of cells growth by colorimetric (SRB) assay, SK-BR-3; conditions: for GI50 / CC50: Homo sapiens, SK-BR-3, 48 h; for GI50: read-out: GI50 SK-BR-3, SRB assay, 48 hours exposure; for TGI SK-BR-3: SRB assay, 48 hours exposure
In short: as §1

IGROV-1 = test: Inhibition of cells growth by colorimetric (SRB) assay, IGROV-1; conditions: for GI50 / CC50: Homo sapiens, IGROV-1, 48 h; for GI50: read-out: GI50 IGROV, SRB assay, 48 hours exposure; for TGI IGROV: SRB assay, 48 hours exposure
In short: as §1

IGROV-ET = test: Inhibition of cells growth by colorimetric (SRB) assay, IGROV-ET; conditions: for GI50 / CC50: Homo sapiens, 48 h; for GI50: read-out: GI50 IGROV-ET, SRB assay, 48 hours exposure; for TGI IGROV-ET: SRB assay, 48 hours exposure
In short: as §1

SK-OV-3 = test: Inhibition of cells growth by colorimetric (SRB) assay, SK-OV-3; conditions: for GI50 / CC50: Homo sapiens, SK-OV-3, 48 h; for GI50: read-out: GI50 SKOV-3, SRB assay, 48 hours exposure; for TGI SKOV-3: SRB assay, 48 hours exposure
In short: as §1

PANC-1 = test: Inhibition of cells growth by colorimetric (SRB) assay, PANC-1; conditions: Homo sapiens, PANC-1, 48 h, read-out: GI50 PANC-1, SRB assay, 48 hours exposure
In short: as §1

[1] = Inhibition of cells growth by colorimetric (SRB) assay, HMEC1
HMEC1 = test: as above; conditions: for GI50: Homo sapiens, HMEC-1, 48 h, read-out: GI50 H-MEC-1, SRB assay, 48 hours exposure; for TGI H-MEC-1: SRB assay, 48 hours exposure

SMILES | GI50 (K-562) | TGI K-562 (K-562) | GI50 (A-549) | TGI A-549 (A-549) | GI50 (SK-MEL-28) | TGI MEL-28 (SK-MEL-28) | GI50 (DU-145) | TGI DU-145 (DU-145) | GI50 (LNCaP) | TGI LN-caP (LNCaP) | GI50 (SK-BR-3) | TGI SK-BR-3 (SK-BR-3) | GI50 (IGROV-1) | TGI IGROV (IGROV-1) | GI50 (IGROV-ET) | TGI IGROV-ET (IGROV-ET) | GI50 (SK-OV-3) | TGI SKOV-3 (SK-OV-3) | GI50 (PANC-1) | GI50 (HMEC1) | further results
COc1nccc(-c2c3c(Cl)ccnc3n3c(N)nccc23)n1 [Compound 112] | 1.4 µM | 8.66E−06 | 1.38 µM | 4.35E−06 | 0.321 µM | 5.29E−06 | 0.716 µM | 1.72E−06 | 0.872 µM | 1.51E−06 | 2.01 µM | 7.13E−06 | 1.65 µM | 7.59E−06 | 7.65 µM | 1.91E−05 | 0.989 µM | 2.30E−06 | 6.34 µM | 1.27 µM | CC50 (K-562; read-out: LC50 K-562, SRB assay, 48 hours exposure): 30.6 µM; CC50 (A-549; read-out: LC50 A-549, SRB assay, 48 hours exposure): 30.6 µM; CC50 (SK-MEL-28; read-out: LC50 MEL-28, SRB assay, 48 hours exposure): 16.6 µM; CC50 (DU-145; read-out: LC50 DU-145, SRB assay, 48 hours exposure): 3.06 µM; CC50 (LNCaP; read-out: LC50 LN-caP, SRB assay, 48 hours exposure): 2.62 µM; CC50 (SK-BR-3; read-out: LC50 SK-BR-3, SRB assay, 48 hours exposure): 27.8 µM; CC50 (IGROV-1; read-out: LC50 IGROV, SRB assay, 48 hours exposure): 30.6 µM; CC50 (IGROV-ET; read-out: LC50 IGROV-ET, SRB assay, 48 hours exposure): 30.6 µM; CC50 (SK-OV-3; read-out: LC50 SKOV-3, SRB assay, 48 hours exposure): 30.6 µM; CC50 at 48 h ([1]; human, HMEC1 cells, LC50 H-MEC-1, SRB assay, 48 hours exposure): 11.9 µM; TGI H-MEC-1 (HMEC1; in M (unit assumed)): 4.71E−06
Nc1nccc(-c2c3c(O)ccnc3n3c(N)nccc23)n1 [Variolin B1, variolin B, reference compound] | 1.55 µM | 3.92E−06 | 0.985 µM | 2.21E−06 | 1.2 µM | 2.13E−06 | 0.893 µM | 2.10E−06 | 0.0539 µM | 2.10E−06 | 0.848 µM | 2.31E−06 | 1.14 µM | 2.90E−06 | 1.28 µM | 2.82E−06 | 1.21 µM | 3.32E−06 | 1.68 µM | 0.273 µM | CC50 (K-562; read-out: LC50 K-562): 34.1 µM; CC50 (A-549; read-out: LC50 A-549): 3.41 µM; CC50 (SK-MEL-28; read-out: LC50 MEL-28): 2.8 µM; CC50 (DU-145; read-out: LC50 DU-145): 19.9 µM; CC50 (LNCaP; read-out: LC50 LN-caP): 1.41 µM; CC50 (SK-BR-3; read-out: LC50 SK-BR-3): 27.7 µM; CC50 (IGROV-1; read-out: LC50 IGROV): 34.1 µM; CC50 (IGROV-ET; read-out: LC50 IGROV-ET): 34.1 µM; CC50 (SK-OV-3; read-out: LC50 SKOV-3): 34.1 µM; CC50 at 48 h [1]: 6.07 µM; TGI H-MEC-1 (HMEC1): 7.50E−07
